≈ marks a conversion by molar mass, not a printed value.
Assays:
Human alphaherpesvirus 3 [1] = assay: Antiviral activity against thymidine kinase-deficient Varicella-zoster virus infected in HEL cells assessed as reduction in plaque formation; format: functional, organism-based; settings: Human alphaherpesvirus 3, HEL
Aspergillus niger [2] = assay: Antifungal activity against Aspergillus niger MTCC 282; format: functional
Cytomegalovirus [3] = assay: Antiviral activity against Cytomegalovirus Davis in HEL cells assessed as reduction in plaque formation; format: functional, organism-based; settings: Human betaherpesvirus 5, Davis
[4] = Selectivity index, ratio of CC50 for human MT4 cells to IC50 for HIV2 ROD; format: functional
Candida albicans [5] = assay: Antifungal activity against Candida albicans MTCC 227 at 250 ug/ml after 74 hrs by Kirby-Bauer method; format: functional; settings: MTCC 227, 74 h, read-out: IZ
Staphylococcus aureus [6] = assay: Antibacterial activity against Staphylococcus aureus MTCC 96 after 24 hrs by broth dilution method; format: functional; settings: MTCC 96, 24 h
Escherichia coli [7] = assay: Antibacterial activity against Escherichia coli MTCC 443 after 24 hrs by broth dilution method; format: functional; settings: MTCC 443, 24 h
[8] = Cytotoxicity against human MT4 cells by MTT assay; format: cell-based
Streptococcus pyogenes [9] = assay: Antibacterial activity against Streptococcus pyogenes MTCC 442 after 24 hrs by broth dilution method; format: functional; settings: MTCC 442, 24 h
[10] = test system: Human immunodeficiency virus 2; assay: Antiviral activity against HIV2 ROD infected in MT4 cells assessed as inhibition of virus-induced cytopathogenicity by MTT assay; format: functional, organism-based; settings: Human immunodeficiency virus 2, ISOLATE ROD
[11] = test system: Human immunodeficiency virus 1; assay: Antiviral activity against HIV1 3B infected in MT4 cells assessed as inhibition of virus-induced cytopathogenicity by MTT assay; format: functional, organism-based; settings: Human immunodeficiency virus 1, 3B
[12] = Cytotoxicity against human HEL cells assessed as alteration in cell morphology; format: cell-based
Pseudomonas aeruginosa [13] = assay: Antibacterial activity against Pseudomonas aeruginosa MTCC 424 after 24 hrs by broth dilution method; format: functional; settings: MTCC 424, 24 h
Aspergillus niger [14] = assay: Antifungal activity against Aspergillus niger MTCC 282 at 250 ug/ml after 74 hrs by Kirby-Bauer method; format: functional; settings: MTCC 282, 74 h, read-out: IZ
Aspergillus clavatus [15] = assay: Antifungal activity against Aspergillus clavatus MTCC 1323; format: functional
Candida albicans [16] = assay: Antifungal activity against Candida albicans MTCC 227; format: functional
Human alphaherpesvirus 3 [17] = assay: Antiviral activity against Varicella-zoster virus Oka expressing thymidine kinase infected in HEL cells assessed as reduction in plaque formation; format: functional, organism-based; settings: Human alphaherpesvirus 3, strain Oka vaccine
Pseudomonas aeruginosa [18] = assay: Antibacterial activity against Pseudomonas aeruginosa MTCC 424 at 250 ug/ml after 24 hrs by Kirby-Bauer method; format: functional; settings: MTCC 424, 24 h, read-out: IZ
[19] = Selectivity index, ratio of CC50 for human MT4 cells to IC50 for HIV1 3B; format: functional
Cytomegalovirus [20] = assay: Antiviral activity against Cytomegalovirus AD-169 infected in HEL cells assessed as reduction in plaque formation; format: functional, organism-based; settings: Human betaherpesvirus 5, AD-169, HEL
Streptococcus pyogenes [21] = assay: Antibacterial activity against Streptococcus pyogenes MTCC 442 at 250 ug/ml after 24 hrs by Kirby-Bauer method; format: functional; settings: MTCC 442, 24 h, read-out: IZ
[22] = Cytotoxicity against human HEL cells; format: cell-based
Staphylococcus aureus [23] = assay: Antibacterial activity against Staphylococcus aureus MTCC 96 at 250 ug/ml after 24 hrs by Kirby-Bauer method; format: functional; settings: MTCC 96, 24 h, read-out: IZ
Aspergillus clavatus [24] = assay: Antifungal activity against Aspergillus clavatus MTCC 1323 at 250 ug/ml after 74 hrs by Kirby-Bauer method; format: functional; settings: MTCC 1323, 74 h, read-out: IZ
Escherichia coli [25] = assay: Antibacterial activity against Escherichia coli MTCC 443 at 250 ug/ml after 24 hrs by Kirby-Bauer method; format: functional; settings: MTCC 443, 24 h, read-out: IZ

SMILES | EC50 (Human alphaherpesvirus 3 [1]) | MIC (Aspergillus niger [2]) | EC50 (Cytomegalovirus [3]) | Ratio CC50/IC50 [4] | zone of inhibition at 250 µg/mL (Candida albicans [5]) | MIC (Staphylococcus aureus [6]) | MIC (Escherichia coli [7]) | CC50 [8] | MIC (Streptococcus pyogenes [9]) | IC50 [10] | IC50 [11] | MCC [12] | MIC (Pseudomonas aeruginosa [13]) | zone of inhibition at 250 µg/mL (Aspergillus niger [14]) | MIC (Aspergillus clavatus [15]) | MIC (Candida albicans [16]) | EC50 (Human alphaherpesvirus 3 [17]) | zone of inhibition at 250 µg/mL (Pseudomonas aeruginosa [18]) | Ratio CC50/IC50 [19] | EC50 (Cytomegalovirus [20]) | also measured
[O-]c1on[n+](-c2ccc(Cc3ccc(-[n+]4noc([O-])c4CN4CCN(C5=Nc6ccccc6Sc6ccccc65)CC4)cc3)cc2)c1CN1CCN(C2=Nc3ccccc3Sc3ccccc32)CC1 | > 4 µg/mL | 1000 µg/mL (≈ 1050 µM) | > 20 µg/mL | <1 | 25 mm | 62.5 µg/mL (≈ 65.7 µM) | 250 µg/mL (≈ 263 µM) | 11.6 µg/mL (≈ 12.2 µM) | 250 µg/mL (≈ 263 µM) | > 11.6 µg/mL | > 11.6 µg/mL | 100 µg/mL | 125 µg/mL (≈ 131 µM) | 18 mm | 500 µg/mL (≈ 526 µM) | 500 µg/mL (≈ 526 µM) | > 4 µg/mL | 21 mm | <1 | > 20 µg/mL | zone of inhibition at 250 µg/mL (Streptococcus pyogenes [21]): 18 mm; CC50 [22]: 13.8 µg/mL (≈ 14.5 µM); zone of inhibition at 250 µg/mL (Staphylococcus aureus [23]): 23 mm; zone of inhibition at 250 µg/mL (Aspergillus clavatus [24]): 23 mm; zone of inhibition at 250 µg/mL (Escherichia coli [25]): 19 mm
Cc1ccc(-[n+]2noc([O-])c2CN2CCN(C)C(c3ccccc3)C2)cc1 (stereo not given) | > 20 µg/mL | 1000 µg/mL (≈ 2740 µM) | > 20 µg/mL | <1 | 18 mm | 250 µg/mL (≈ 686 µM) | 500 µg/mL (≈ 1370 µM) | 14.4 µg/mL (≈ 39.5 µM) | 100 µg/mL (≈ 274 µM) | > 14.4 µg/mL | > 14.4 µg/mL | 100 µg/mL | 100 µg/mL (≈ 274 µM) | 18 mm | 200 µg/mL (≈ 549 µM) | 200 µg/mL (≈ 549 µM) | > 20 µg/mL | 21 mm | <1 | > 20 µg/mL | zone of inhibition at 250 µg/mL (Streptococcus pyogenes [21]): 21 mm; CC50 [22]: 23.7 µg/mL (≈ 65 µM); zone of inhibition at 250 µg/mL (Staphylococcus aureus [23]): 19 mm; zone of inhibition at 250 µg/mL (Aspergillus clavatus [24]): 21 mm; zone of inhibition at 250 µg/mL (Escherichia coli [25]): 16 mm
Cc1ccc(-[n+]2noc([O-])c2CN2CCOCC2)cc1 | > 20 µg/mL | 1000 µg/mL (≈ 3630 µM) | > 20 µg/mL | <1 | 23 mm | 100 µg/mL (≈ 363 µM) | 200 µg/mL (≈ 726 µM) | 16.6 µg/mL (≈ 60.2 µM) | 250 µg/mL (≈ 908 µM) | > 16.6 µg/mL | > 16.6 µg/mL | 100 µg/mL | 250 µg/mL (≈ 908 µM) | 18 mm | 500 µg/mL (≈ 1820 µM) | 500 µg/mL (≈ 1820 µM) | > 20 µg/mL | 18 mm | <1 | > 20 µg/mL | zone of inhibition at 250 µg/mL (Streptococcus pyogenes [21]): 19 mm; CC50 [22]: 38.4 µg/mL (≈ 139 µM); zone of inhibition at 250 µg/mL (Staphylococcus aureus [23]): 21 mm; zone of inhibition at 250 µg/mL (Aspergillus clavatus [24]): 21 mm; zone of inhibition at 250 µg/mL (Escherichia coli [25]): 19 mm
[O-]c1on[n+](-c2ccc(Cc3ccc(-[n+]4noc([O-])c4CN4CCN(c5ccccc5)CC4)cc3)cc2)c1CN1CCN(c2ccccc2)CC1 | > 4 µg/mL | 1000 µg/mL (≈ 1460 µM) | > 20 µg/mL | <1 | 21 mm | 500 µg/mL (≈ 730 µM) | 125 µg/mL (≈ 183 µM) | 10.3 µg/mL (≈ 15 µM) | 200 µg/mL (≈ 292 µM) | > 10.3 µg/mL | > 10.3 µg/mL | ≥ 20 µg/mL | 100 µg/mL (≈ 146 µM) | 20 mm | 250 µg/mL (≈ 365 µM) | 250 µg/mL (≈ 365 µM) | > 4 µg/mL | 22 mm | <1 | > 4 µg/mL | zone of inhibition at 250 µg/mL (Streptococcus pyogenes [21]): 18 mm; CC50 [22]: 12 µg/mL (≈ 17.5 µM); zone of inhibition at 250 µg/mL (Staphylococcus aureus [23]): 17 mm; zone of inhibition at 250 µg/mL (Aspergillus clavatus [24]): 25 mm; zone of inhibition at 250 µg/mL (Escherichia coli [25]): 20 mm
CC(=O)N1CCN(Cc2c([O-])on[n+]2-c2ccc(C)cc2)CC1 | > 20 µg/mL | 200 µg/mL (≈ 632 µM) | > 20 µg/mL | <1 | 22 mm | 500 µg/mL (≈ 1580 µM) | 250 µg/mL (≈ 790 µM) | 17.3 µg/mL (≈ 54.6 µM) | 100 µg/mL (≈ 316 µM) | > 17.3 µg/mL | > 17.3 µg/mL | 100 µg/mL | 500 µg/mL (≈ 1580 µM) | 26 mm | 200 µg/mL (≈ 632 µM) | 200 µg/mL (≈ 632 µM) | > 20 µg/mL | 17 mm | <1 | > 20 µg/mL | zone of inhibition at 250 µg/mL (Streptococcus pyogenes [21]): 21 mm; CC50 [22]: 24.9 µg/mL (≈ 78.7 µM); zone of inhibition at 250 µg/mL (Staphylococcus aureus [23]): 17 mm; zone of inhibition at 250 µg/mL (Aspergillus clavatus [24]): 24 mm; zone of inhibition at 250 µg/mL (Escherichia coli [25]): 19 mm
Cc1ccc(-[n+]2noc([O-])c2CN2CCN(C3=Nc4ccccc4Sc4ccccc43)CC2)cc1 | > 20 µg/mL | 1000 µg/mL (≈ 2070 µM) | > 20 µg/mL | <1 | 21 mm | 200 µg/mL (≈ 414 µM) | 250 µg/mL (≈ 517 µM) | 13.7 µg/mL (≈ 28.2 µM) | 500 µg/mL (≈ 1030 µM) | > 13.6 µg/mL | > 13.6 µg/mL | ≥ 20 µg/mL | 125 µg/mL (≈ 258 µM) | 18 mm | 1000 µg/mL (≈ 2070 µM) | 1000 µg/mL (≈ 2070 µM) | > 20 µg/mL | 21 mm | <1 | > 4 µg/mL | zone of inhibition at 250 µg/mL (Streptococcus pyogenes [21]): 16 mm; CC50 [22]: 14.8 µg/mL (≈ 30.6 µM); zone of inhibition at 250 µg/mL (Staphylococcus aureus [23]): 19 mm; zone of inhibition at 250 µg/mL (Aspergillus clavatus [24]): 18 mm; zone of inhibition at 250 µg/mL (Escherichia coli [25]): 19 mm
[O-]c1on[n+](-c2ccc(Cc3ccc(-[n+]4noc([O-])c4CN4CCN(c5cccc(Cl)c5)CC4)cc3)cc2)c1CN1CCN(c2cccc(Cl)c2)CC1 | > 4 µg/mL | 1000 µg/mL (≈ 1330 µM) | 20 µg/mL (≈ 26.5 µM) | <1 | 21 mm | 250 µg/mL (≈ 332 µM) | 250 µg/mL (≈ 332 µM) | 13.2 µg/mL (≈ 17.5 µM) | 200 µg/mL (≈ 265 µM) | > 13.2 µg/mL | > 13.2 µg/mL | ≥ 20 µg/mL | 500 µg/mL (≈ 663 µM) | 20 mm | 1000 µg/mL (≈ 1330 µM) | 1000 µg/mL (≈ 1330 µM) | > 4 µg/mL | 17 mm | <1 | > 4 µg/mL | zone of inhibition at 250 µg/mL (Streptococcus pyogenes [21]): 19 mm; CC50 [22]: > 100 µg/mL; zone of inhibition at 250 µg/mL (Staphylococcus aureus [23]): 19 mm; zone of inhibition at 250 µg/mL (Aspergillus clavatus [24]): 22 mm; zone of inhibition at 250 µg/mL (Escherichia coli [25]): 18 mm

Reference: ChEMBL document CHEMBL3044741, “Synthesis of novel biologically active methylene derivatives of sydnones” (Med Chem Res, 2013)
